The subject of one experiment is AMO1-CD33 clone D2. In words: CellTiter-Glo proliferation assay (Example 6). The class given is cell-based, human. As to conditions: CD33 Mcl-1 ADCs and payload P1, 5 days. The method, then:
Mcl-1 ADCs were tested on nine endogenous cancer cell lines and one isogenic cell line engineered to overexpress a target of interest. Six targets were assessed: HER2, BCMA, CD38, CD48, CD79b, and CD33.
Cell lines • HER2: HCC1954 (ATCC No. CRL-2338 cultured in RPMI-1640+10% FBS) and HCC2218 (ATCC No. CRL-2343 cultured in RPMI-1640+10% FBS). • BCMA: NCI-H929 (ATCC No. CRL-9068 cultured in RPMI-1640+10% FBS+0.05 mM 2-mercaptoethanol). • CD38: A4-Fuk (JCRB No. JCRB0097 cultured in RPMI-1640+10% FBS) and KMS-21 BM (JCRB No. JCRB1185 cultured in RPMI-1640+10% FBS). • CD48: NCI-H929 (ATCC No. CRL-9068 cultured in RPMI-1640+10% FBS+0.05 mM 2-mercaptoethanol), OPM-2 (DSMZ No. ACC-50 cultured in RPMI-1640+10% FBS) and AMO1 (DSMZ No. ACC-538 cultured in RPMI-1640+20% FBS). • CD79b: RS4;11 (ATCC No. CRL-1873 cultured in RPMI-1640+10% FBS). • CD33: MOLM-13 (DSMZ No. ACC-554 cultured in RPMI-1640+10% FBS) and an isogenic cell line, AMO1-CD33 clone D2. AMO1 cell line was transfected to generate a stable AMO1 cell line expressing the exogenous protein of interest, CD33, AMO1-CD33 clone D2 (cultured in RPMI-1640+20% FBS).
The ability of Mcl-1 ADCs to inhibit cell proliferation and survival was assessed using a Promega CellTiter-Glo® proliferation assay. Cell lines were cultured in media optimal for their growth at 5% CO2, 37° C. in a tissue culture incubator. Prior to seeding for the proliferation assay, the cells were split at least 2 days before the assay to ensure optimal growth density. On the day of seeding, adherent cells were lifted off tissue culture flasks using 0.25% trypsin. Cell viability and cell density were determined using a cell counter (Vi-Cell XR Cell Viability Analyzer, Beckman Coulter). […] Cells were seeded at a density of 1,000 cells per well in 45 μl of standard growth media. Plates were incubated at 5% CO2, 37° C. overnight in a tissue culture incubator. The next day, free Mcl-1 payload (P1), targeting Mcl-1 ADCs, and non-targeting isotype ADCs were prepared at 10× in standard growth media. The prepared drug treatments were then added to the cells resulting in final concentrations of 0.0005-500 nM and a final volume of 50 μl per well. Each drug concentration was tested in quadruplets. Plates were incubated at 5% CO2, 37° C. for 5 days in a tissue culture incubator, after which cell viability was assessed through the addition of 25 μl of CellTiter Glo® (Promega, Cat. No. G7573), a reagent which lyses cells and measures total adenosine triphosphate (ATP) content. Plates were incubated at room temperature for 10 minutes to stabilize luminescent signals prior to reading using a luminescence reader (EnVision Multilabel Plate Reader, PerkinElmer). […]
On the technique in general: In ATP-based viability assays light output follows the ATP content of the culture.

The subject of another experiment is 21435hx. In words: In vitro ADC activity, AML cell lines, CellTiter-Glo (Example 20). In kind it is cell-based. The conditions noted are these: 5 days.
The test system of a further experiment is cmk. The description is as above. In kind it is cell-based. The conditions noted are these: 5 days.
For another experiment, the system named is f36p. Described as above. In kind it is cell-based. The conditions noted are these: 5 days.
The next experiment deals with kasumi1. The experiment is described as above. The class given is cell-based. As to conditions: kasumi1, 5 days.
For a further experiment, the system named is molm16. The description is as above. In kind it is cell-based. As to conditions: molm16, 5 days.
Another experiment deals with monomac1. The description is as above. As to conditions: monomac1, 5 days. The class given is cell-based.
The test system of another experiment is monomac6. The experiment is described as above. The class given is cell-based. The conditions noted are these: monomac6, 5 days.
The subject of another experiment is ociaml2. The description is as above. In kind it is cell-based. As to conditions: ociaml2, 5 days.
A further experiment concerns ociaml3. The experiment is described as above. In kind it is cell-based. As to conditions: ociaml3, 5 days.
Another experiment concerns thp1. The description is as above. In kind it is cell-based. As to conditions: thp1, 5 days.

As usually defined, the IC50 is the concentration at which inhibition is half-maximal. A high value points to lower potency. By GI50 is commonly meant the concentration giving 50% growth inhibition. Higher therefore signals lower sensitivity of the cells.

The structures appear in SMILES notation. Where only a bound is given, the exact number is not on record here.

In the case of `COc1ccccc1-c1nccc(COc2ccccc2C[C@@H](Oc2ncnc3sc(-c4ccc(F)cc4)c(-c4ccc(OCCN5CCN(C)CC5)c(Cl)c4C)c23)C(=O)O)n1` [P1, (2R)-2-[5-[3-chloro-2-methyl-4-[2-(4-methylpiperazin-1-yl)ethoxy]phenyl]-6-(4-fluorophenyl)thieno[2,3-d]pyrimidin-4-yl]oxy-3-[2-[[2-(2-methoxyphenyl)pyrimidin-4-yl]methoxy]phenyl]propanoic acid], in the experiment on AMO1-CD33 clone D2, the “Amax AMO1-CD33” value is on record as 103.00. This compound displayed an IC50 in the experiment with AMO1-CD33 clone D2 (Homo sapiens, 120 h) of 1.53 nM. Further, the 50% growth inhibitory concentration (GI50) in the experiment on 21435hx (120 h) was 12 nM; in the experiment with cmk (Homo sapiens, 120 h), greater than 10000 nM; in the experiment with f36p (120 h), greater than 10000 nM; in the experiment on kasumi1 (Homo sapiens, Kasumi 1, 120 h), 37 nM; in the experiment on molm16 (120 h), 45 nM; in the experiment on monomac1 (Mono-Mac-1, 120 h), 1 nM. For the same compound, the GI50 came to 1 nM in the experiment on monomac6 (Homo sapiens, MONO-MAC-6, 120 h); 127 nM with ociaml2 (Homo sapiens, OCI-AML2, 120 h); 138 nM in the experiment with ociaml3 (Homo sapiens, OCI-AML-3, 120 h); 28 nM with thp1 (Homo sapiens, THP-1, 120 h). Also, the Amax in the experiment with 21435hx (in % (unit assumed)) is −91; with cmk (unit assumed), 100%; in the experiment with f36p (unit assumed), 51%; with kasumi1 (in % (unit assumed)) it was −87; with molm16 (in % (unit assumed)), −76; in the experiment on monomac1 (in % (unit assumed)), −66. Besides, the Amax in the experiment on monomac6 (in % (unit assumed)) is −43; in the experiment on ociaml2 (in % (unit assumed)), −50; in the experiment with ociaml3 (unit assumed), 1%; in the experiment with thp1 (in % (unit assumed)) it was −72.

The values are drawn from patent publication US20230092679A1, “MCL-1 INHIBITOR ANTIBODY-DRUG CONJUGATES AND METHODS OF USE” (NOVARTIS AG, priority 2019, published 2023).
